Source: patent US20200399243A1, “NOVEL COMPOUNDS” (Inflazome Limited, priority 2018, published 2020)
Counter-ions that a name gives are not always drawn.

Target: T1, NLRP3 (Homo sapiens, UniProt Q96P20)
T1 construct: Seed THP-1 cells (25,000 cells/well) containing 1.0 μg/ml LPS in 40 μl of RPMI medium; host or cells: THP-1 cells
Experiment: THP-1 cells pyroptosis assay
Format: cell-based
Details: 1.0 μg/ml LPS, compound 3 hrs, nigericin 5 μM 1 hr, resazurin readout
Procedure: THP-1 cells (ATCC # TIB-202) were grown in RPMI containing L-glutamine (Gibco #11835) supplemented with 1 mM sodium pyruvate (Sigma # S8636) and penicillin (100 units/ml)/streptomycin (0.1 mg/ml) (Sigma # P4333) in 10% Fetal Bovine Serum (FBS) (Sigma # F0804). The cells were routinely passaged and grown to confluency (˜10^6 cells/ml). On the day of the experiment, THP-1 cells were harvested and resuspended into RPMI medium (without FBS). The cells were then counted and viability (>90%) checked by Trypan blue (Sigma # T8154). Appropriate dilutions were made to give a concentration of 625,000 cells/ml. To this diluted cell solution was added LPS (Sigma # L4524) to give a 1 μg/ml Final Assay Concentration (FAC). 40 μl of the final preparation was aliquoted into each well of a 96-well plate. The plate thus prepared was used for compound screening. The following method step-by-step assay was followed for compound screening. • 1. Seed THP-1 cells (25,000 cells/well) containing 1.0 μg/ml LPS in 40 μl of RPMI medium (without FBS) in 96-well, black walled, clear bottom cell culture plates coated with poly-D-lysine (VWR #734-0317) • 2. Add 5 μl compound (8 points half-log dilution, with 10 μM top dose) or vehicle (DMSO 0.1% FAC) to the appropriate wells • 3. Incubate for 3 hrs at 37° C., 5% CO2 • 4. Add 5 μl nigericin (Sigma # N7143) (FAC 5 μM) to all wells • 5. Incubate for 1 hr at 37° C., 5% CO2 • 6. At the end of the incubation period, spin plates at 300×g for 3 mins and remove supernatant 7. Then add 50 μl of resazurin (Sigma # R7017) (FAC 100 μM resazurin in RPMI medium without FBS) and incubate plates for a further 1-2 hrs at 37° C. and 5% CO2 • 8. Plates were read in an Envision reader at Ex 560 nm and Em 590 nm • 9. IC50 data is fitted to a non-linear regression equation (log inhibitor vs response-variable slope 4-parameters) The results of the pyroptosis assay are summarised in Table 2 below as THP IC50.

T1 sequence (Q96P20 whole entry): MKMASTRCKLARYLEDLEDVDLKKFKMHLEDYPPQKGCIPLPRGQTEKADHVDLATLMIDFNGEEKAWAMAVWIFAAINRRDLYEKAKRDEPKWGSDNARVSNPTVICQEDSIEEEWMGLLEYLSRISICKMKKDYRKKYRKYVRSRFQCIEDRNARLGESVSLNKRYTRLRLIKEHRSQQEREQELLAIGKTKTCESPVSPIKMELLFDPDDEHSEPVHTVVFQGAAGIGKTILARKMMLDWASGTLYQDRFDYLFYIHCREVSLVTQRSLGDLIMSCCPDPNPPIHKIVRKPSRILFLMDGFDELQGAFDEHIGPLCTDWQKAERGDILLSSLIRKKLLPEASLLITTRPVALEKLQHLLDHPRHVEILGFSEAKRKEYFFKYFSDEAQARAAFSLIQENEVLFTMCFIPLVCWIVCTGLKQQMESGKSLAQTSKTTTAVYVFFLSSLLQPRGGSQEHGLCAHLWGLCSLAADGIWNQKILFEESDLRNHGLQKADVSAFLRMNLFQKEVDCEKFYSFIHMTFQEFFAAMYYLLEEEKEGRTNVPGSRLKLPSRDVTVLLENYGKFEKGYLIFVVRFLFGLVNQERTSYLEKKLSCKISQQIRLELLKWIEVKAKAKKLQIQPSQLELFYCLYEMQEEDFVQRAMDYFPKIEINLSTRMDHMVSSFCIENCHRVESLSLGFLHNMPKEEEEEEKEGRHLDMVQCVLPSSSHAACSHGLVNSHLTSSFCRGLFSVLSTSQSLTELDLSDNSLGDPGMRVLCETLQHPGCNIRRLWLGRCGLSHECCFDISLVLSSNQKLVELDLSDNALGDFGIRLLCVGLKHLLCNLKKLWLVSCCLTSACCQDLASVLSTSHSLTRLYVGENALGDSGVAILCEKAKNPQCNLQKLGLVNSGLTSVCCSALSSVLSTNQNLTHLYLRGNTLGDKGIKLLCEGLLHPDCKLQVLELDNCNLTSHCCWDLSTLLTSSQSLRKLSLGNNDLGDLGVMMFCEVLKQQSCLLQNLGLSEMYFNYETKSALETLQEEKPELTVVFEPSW

| Compound | IC50 [µM] |
| --- | --- |
| CC(C)n1nc(S(=O)(=O)NC(=O)Cc2c3c(cc4c2CCC4)CCC3)cc1CN(C)C [Example 1, N-((5-((Dimethylamino)methyl)-1-isopropyl-1H-pyrazol-3-yl)sulfonyl)-2-(1,2,3,5,6,7-hexahydro-s-indacen-4-yl)acetamide] | 1 to 5 |
| CC(C)c1cc(F)cc(C(C)C)c1CC(=O)NS(=O)(=O)c1cc(C(=O)N(C)C)n(C)n1 [Example 2, 3-(N-(2-(4-Fluoro-2,6-diisopropylphenyl)acetyl)sulfamoyl)-N,N,1-trimethyl-1H-pyrazole-5-carboxamide] | 1 to 5 |
| CC(c1cc(S(=O)(=O)NC(=O)Cc2c3c(cc4c2CCC4)CCC3)nn1C(C)C)N(C)C (stereo not drawn) [Example 3, N-((5-(1-(Dimethylamino)ethyl)-1-isopropyl-1H-pyrazol-3-yl)sulfonyl)-2-(1,2,3,5,6,7-hexahydro-s-indacen-4-yl)acetamide] | 1 to 5 |
| CC(c1cc(S(=O)(=O)NC(=O)Cc2c3c(cc4c2CCC4)CCC3)nn1C1CC1)N(C)C (stereo not drawn) [Example 9, N-((1-Cyclopropyl-5-(1-(dimethylamino)ethyl)-1H-pyrazol-3-yl)sulfonyl)-2-(1,2,3,5,6,7-hexahydro-s-indacen-4-yl)acetamide] | 1 to 5 |
| CC(c1cc(S(=O)(=O)NC(=O)Cc2c3c(cc4c2CCC4)CCC3)nn1C)N(C)C (stereo not drawn) [Example 11, N-((5-(1-(Dimethylamino)ethyl)-1-methyl-1H-pyrazol-3-yl)sulfonyl)-2-(1,2,3,5,6,7-hexahydro-s-indacen-4-yl)acetamide] | 1 to 5 |
| CN(C)C(=O)c1cc(S(=O)(=O)NC(=O)Cc2c3c(cc4c2CCC4)CCC3)nn1C [Example 12, 3-(N-(2-(1,2,3,5,6,7-Hexahydro-s-indacen-4-yl)acetyl)sulfamoyl)-N,N,1-trimethyl-1H-pyrazole-5-carboxamide] | 5 to 10 |
| COc1cc(-c2ccc3c(c2CC(=O)NS(=O)(=O)c2cc(C(=O)N(C)C)n(C)n2)CCC3)ccn1 [Example 14, 3-(N-(2-(5-(2-Methoxypyridin-4-yl)-2,3-dihydro-1H-inden-4-yl)acetyl)sulfamoyl)-N,N,1-trimethyl-1H-pyrazole-5-carboxamide] | 5 to 10 |
| CN(C)C(=O)c1cc(S(=O)(=O)NC(=O)Cc2c(-c3ccnc(C#N)c3)ccc3c2CCC3)nn1C [Example 15, 3-(N-(2-(5-(2-Cyanopyridin-4-yl)-2,3-dihydro-1H-inden-4-yl)acetyl)sulfamoyl)-N,N,1-trimethyl-1H-pyrazole-5-carboxamide] | 1 to 5 |

Further lines, results first:

| IC50 [µM] | Compound |
| --- | --- |
| ≤ 1 | COc1cc(-c2cc(F)cc(C(C)C)c2CC(=O)NS(=O)(=O)c2cc(C(=O)N(C)C)n(C)n2)ccn1 [Example 4, 3-(N-(2-(4-Fluoro-2-isopropyl-6-(2-methoxypyridin-4-yl)phenyl)acetyl)sulfamoyl)-N,N,1-trimethyl-1H-pyrazole-5-carboxamide, potassium salt] |
| 1 to 5 | CC(C)c1cc(F)cc(-c2cccnc2)c1CC(=O)NS(=O)(=O)c1cc(C(=O)N(C)C)n(C)n1 [Example 5, 3-(N-(2-(4-Fluoro-2-isopropyl-6-(pyridin-3-yl)phenyl)acetyl)sulfamoyl)-N,N,1-trimethyl-1H-pyrazole-5-carboxamide] |
| 1 to 5 | CC(C)c1cc(F)cc(-c2ccncc2)c1CC(=O)NS(=O)(=O)c1cc(C(=O)N(C)C)n(C)n1 [Example 6, 3-(N-(2-(4-Fluoro-2-isopropyl-6-(pyridin-4-yl)phenyl)acetyl)sulfamoyl)-N,N,1-trimethyl-1H-pyrazole-5-carboxamide, potassium salt] |
| 1 to 5 | CC(C)c1cc(F)cc(-c2ccncc2)c1CC(=O)NS(=O)(=O)c1ccn(C(C)(C)CN(C)C)n1 [Example 7, N-((1-(1-(Dimethylamino)-2-methylpropan-2-yl)-1H-pyrazol-3-yl)sulfonyl)-2-(4-fluoro-2-isopropyl-6-(pyridin-4-yl)phenyl)acetamide, potassium salt] |
| 1 to 5 | COc1cc(-c2cc(F)cc(C(C)C)c2CC(=O)NS(=O)(=O)c2cc(CN(C)C)n(C)n2)ccn1 [Example 8, N-((5-((Dimethylamino)methyl)-1-methyl-1H-pyrazol-3-yl)sulfonyl)-2-(4-fluoro-2-isopropyl-6-(2-methoxypyridin-4-yl)phenyl) acetamide, potassium salt] |
| 1 to 5 | CC(C)c1cc(F)cc(C(C)C)c1CC(=O)NS(=O)(=O)c1cc(CN(C)C)n(C2CC2)n1 [Example 10, N-((1-Cyclopropyl-5-((dimethylamino)methyl)-1H-pyrazol-3-yl)sulfonyl)-2-(4-fluoro-2,6-diisopropylphenyl)acetamide] |
| 5 to 10 | CN(C)CC(C)(C)n1ccc(S(=O)(=O)NC(=O)Cc2c3c(cc4c2CCC4)CCC3)n1 [Example 13, N-((1-(1-(Dimethylamino)-2-methylpropan-2-yl)-1H-pyrazol-3-yl)sulfonyl)-2-(1,2,3,5,6,7-hexahydro-s-indacen-4-yl)acetamide] |
| 5 to 10 | CC(C)c1cc(F)cc(C(C)C)c1CC(=O)NS(=O)(=O)c1ccn(CCN(C)C)n1 [Example 16, N-((1-(2-(Dimethylamino)ethyl)-1H-pyrazol-3-yl)sulfonyl)-2-(4-fluoro-2,6-diisopropylphenyl)acetamide] |
| 1 to 5 | CC(C)c1cc(F)cc(-c2ccncc2)c1CC(=O)NS(=O)(=O)c1cc(CN(C)C)n(C)n1 [Example 17, N-((5-((Dimethylamino)methyl)-1-methyl-1H-pyrazol-3-yl)sulfonyl)-2-(4-fluoro-2-isopropyl-6-(pyridin-4-yl)phenyl)acetamide] |
| 1 to 5 | COc1cc(-c2cc(F)cc(C(C)C)c2CC(=O)NS(=O)(=O)c2ccn(C(C)(C)CN(C)C)n2)ccn1 [Example 18] |
